In brackets after ≈: the same amount, converted by molar mass. Where two headings read alike, the source gives them in different places.
Key:
[1] = tested on: tobacco mosaic virus (TMV); experiment: Anti-TMV curative activity (treatment mode), live friction inoculation on tobacco seedlings; assay type: in vivo; details: Tobacco mosaic virus, read-out: Anti-TMV activity, Curative effect (inhibition), 100 μg/mL, tobacco seedlings, checked on seventh day
[2] = tested on: tobacco mosaic virus (TMV); experiment: Anti-TMV inactivation activity (inactivation mode), compound mixed with TMV before inoculation of tobacco leaves; assay type: in vivo; details: Tobacco mosaic virus, read-out: Anti-TMV activity, Inactivation effect (inhibition)
[3] = tested on: tobacco mosaic virus (TMV); experiment: Anti-TMV protective activity (protection mode), live friction inoculation on tobacco seedlings; assay type: in vivo; details: Tobacco mosaic virus, read-out: Anti-TMV activity, Protection effect (inhibition)
[4] = tested on: tobacco mosaic virus (TMV); experiment: Anti-TMV inducing activity (induction mode), tobacco seedlings; assay type: in vivo; details: Tobacco mosaic virus, read-out: Anti-TMV activity, Induction effect (inhibition), 100 μg/mL, tobacco seedlings
Alternaria solani = experiment: Fungicidal activity, fungi growth rate method, AS; assay type: cell-based; details: Alternaria solani; 50 μg/mL; read-out: Fungicidal activity, inhibition, AS
Botrytis cinerea = experiment: Fungicidal activity, fungi growth rate method, BC; assay type: cell-based; details: Botrytis cinerea, 50 μg/mL
Cercospora arachidicola = experiment: Fungicidal activity, fungi growth rate method, CA; assay type: cell-based; details: Mycosphaerella arachidis, 50 μg/mL
wheat Gibberella zeae = experiment: microbe, parasite or virus in culture; assay type: cell-based; details: Fusarium graminearum
[5] = tested on: Phytophthora infestans (Mont) de Bary; experiment: microbe, parasite or virus in culture; assay type: cell-based; details: Phytophthora infestans
Physalospora piricola = experiment: Fungicidal activity, fungi growth rate method, PP; assay type: cell-based; details: 50 μg/mL
Pellicularia sasakii = experiment: Fungicidal activity, fungi growth rate method, PS; assay type: cell-based; details: 50 μg/mL
Rhizoctonia cerealis = experiment: Fungicidal activity, fungi growth rate method, RC; assay type: cell-based; details: Ceratobasidium cereale; 50 μg/mL; read-out: Fungicidal activity, inhibition, RC
Sclerotinia sclerotiorum = experiment: microbe, parasite or virus in culture; assay type: cell-based; details: Sclerotinia sclerotiorum; for inhibition at 50 µg/mL: 50 μg/mL; for EC90: read-out: EC90 against S. sclerotiorum in vitro
[6] = read-out: Fungicidal activity, inhibition, BC
[7] = read-out: Fungicidal activity, inhibition, CA
[8] = read-out: Fungicidal activity, inhibition, GZ
[9] = read-out: Fungicidal activity, inhibition, PI
[10] = read-out: Fungicidal activity, inhibition, PP
[11] = read-out: Fungicidal activity, inhibition, PS
[12] = read-out: Fungicidal activity (inhibition) against SS: Sclerotinia sclerotiorum
[13] = read-out: Fungicidal activity, inhibition, SS

Row | Compound | inhibition at 100 µg/mL [1] | inhibition at 100 µg/mL [2] | inhibition at 100 µg/mL [3] | inhibition at 100 µg/mL [4] | inhibition at 50 µg/mL (Alternaria solani) | inhibition at 50 µg/mL (Botrytis cinerea; [6]) | inhibition at 50 µg/mL (Cercospora arachidicola; [7]) | inhibition at 50 µg/mL (wheat Gibberella zeae; [8]) | inhibition at 50 µg/mL [5, 9] | inhibition at 50 µg/mL (Physalospora piricola; [10]) | inhibition at 50 µg/mL (Pellicularia sasakii; [11]) | inhibition at 50 µg/mL (Rhizoctonia cerealis) | inhibition at 50 µg/mL (Sclerotinia sclerotiorum; [12]) | inhibition at 50 µg/mL (Sclerotinia sclerotiorum; [13]) | melting point | EC90 (Sclerotinia sclerotiorum) | further results
1 | CC(C)(C)OC(=O)N1CCC(C(=O)N/C(=C\c2ccccc2)C(=O)N2CCC(O)(c3ccc(Br)cc3)CC2)CC1 [Compound 3, (Z)-N-[1-[[4-(4-bromophenyl)-4-hydroxy-1-piperidinyl]carbonyl]-2-phenylethenyl]-1-Boc-piperidine-4-carboxamide] | 59% | 14% | 51% | 0% | 32% | 24% | 25% | 34% | 19% | 21% | 23% | 26% | 60 to 80% | 75% | 145 to 147 °C | – | –
2 | COc1ccc(C(=O)N/C(=C\c2ccccc2)C(=O)N2CCC(O)(c3ccc(Br)cc3)CC2)cc1 [Compound 5, (Z)-N-[1-[[4-(4-bromophenyl)-4-hydroxy-1-piperidinyl]carbonyl]-2-phenylethenyl]-4-methoxybenzamide] | 1% | 49% | 48% | 2% | 13% | 13% | 9% | 11% | 18% | 7% | 13% | 7% | 60 to 80% | 80% | 195 to 197 °C | – | –
3 | O=C(N/C(=C\c1ccccc1)C(=O)N1CCC(O)(c2ccc(Br)cc2)CC1)c1ccc(F)cc1 [Compound 6, (Z)-N-[1-[[4-(4-bromophenyl)-4-hydroxy-1-piperidinyl]carbonyl]-2-phenylethenyl]-4-fluorobenzamide] | 15% | 50% | 45% | 6% | 31% | 48% | 49% | 44% | 50% | 49% | 54% | 51% | – | 96% | 129 to 130 °C | 218 mg/L (≈ 416 µM) | inhibition at 50 µg/mL (Botrytis cinerea; read-out: Fungicidal activity (inhibition) against BC: Botrytis cinerea): 48%; inhibition at 50 µg/mL (Cercospora arachidicola; read-out: Fungicidal activity (inhibition) against CA: Cercospora arachidicola): 49%; inhibition at 50 µg/mL ([5]; read-out: Fungicidal activity (inhibition) against PI: Phytophthora infestans (Mont) de Bary): 50%; inhibition at 50 µg/mL (Physalospora piricola; read-out: Fungicidal activity (inhibition) against PP: Physalospora piricola): 49%; inhibition at 50 µg/mL (Pellicularia sasakii; read-out: Fungicidal activity (inhibition) against PS: Pellicularia sasakii): 54%
4 | O=C(N/C(=C\c1ccccc1)C(=O)N1CCC(O)(c2ccc(Br)cc2)CC1)c1ccc(Cl)cc1 [Compound 7, (Z)-N-[1-[[4-(4-bromophenyl)-4-hydroxy-1-piperidinyl]carbonyl]-2-phenylethenyl]-4-chlorobenzamide] | 39% | 31% | 50% | 1% | 25% | 21% | 18% | 71% | 16% | 12% | 20% | 18% | – | 44% | 193 to 194 °C | – | inhibition at 50 µg/mL (wheat Gibberella zeae; read-out: Fungicidal activity (inhibition) against GZ: wheat Gibberella zeae): 71%
5 | O=C(N/C(=C\c1ccccc1)C(=O)N1CCC(O)(c2ccc(Br)cc2)CC1)c1ccc(Br)cc1 [Compound 8, (Z)-N-[1-[[4-(4-bromophenyl)-4-hydroxy-1-piperidinyl]carbonyl]-2-phenylethenyl]-4-bromobenzamide] | 0% | 19% | 1% | 50% | 21% | 18% | 18% | 29% | 26% | 6% | 20% | 23% | – | 50% | 186 to 188 °C | – | –
6 | O=C(N/C(=C\c1ccccc1)C(=O)N1CCC(O)(c2ccc(Br)cc2)CC1)c1ccc(C(F)(F)F)cc1 [Compound 9, (Z)-N-[1-[[4-(4-bromophenyl)-4-hydroxy-1-piperidinyl]carbonyl]-2-phenylethenyl]-4-(trifluoromethyl)benzamide] | 50% | 15% | 60% | 10% | 15% | 13% | 14% | 0% | 18% | 7% | 17% | 11% | 100% | 100% | 130 to 131 °C | 273 mg/L (≈ 477 µM) | –
7 | O=C(N/C(=C\c1ccccc1)C(=O)N1CCC(O)(c2ccc(Br)cc2)CC1)c1ccc([N+](=O)[O-])cc1 [Compound 10, (Z)-N-[1-[[4-(4-bromophenyl)-4-hydroxy-1-piperidinyl]carbonyl]-2-phenylethenyl]-4-nitrobenzamide] | 39% | 62% | 13% | 48% | 8% | 11% | 9% | 17% | 18% | 7% | 17% | 16% | 80 to 95% | 86% | 130 to 132 °C | – | –
8 | O=C(N/C(=C\c1ccccc1)C(=O)N1CCC(O)(c2ccc(Br)cc2)CC1)c1cccc([N+](=O)[O-])c1 [Compound 11, (Z)-N-[1-[[4-(4-bromophenyl)-4-hydroxy-1-piperidinyl]carbonyl]-2-phenylethenyl]-3-nitrobenzamide] | 78% | 71% | 5% | 33% | 24% | 12% | 25% | 34% | 14% | 21% | 8% | 24% | 100% | 100% | 128 to 129 °C | 127 mg/L (≈ 232 µM) | –
9 | O=C(N/C(=C\c1ccccc1)C(=O)N1CCC(O)(c2ccc(Br)cc2)CC1)c1ccccc1[N+](=O)[O-] [Compound 12, (Z)-N-[1-[[4-(4-bromophenyl)-4-hydroxy-1-piperidinyl]carbonyl]-2-phenylethenyl]-2-nitrobenzamide] | 56% | 28% | 23% | 0% | 12% | 8% | 16% | 39% | 10% | 17% | 17% | 14% | 100% | 100% | 122 to 124 °C | 192 mg/L (≈ 348 µM) | –
10 | O=C(N/C(=C\c1ccccc1)C(=O)N1CCC(O)(c2ccc(Br)cc2)CC1)c1ccco1 [Compound 13, (Z)-N-[1-[[4-(4-bromophenyl)-4-hydroxy-1-piperidinyl]carbonyl]-2-phenylethenyl]-2-furamide] | 47% | 69% | 26% | 30% | 15% | 24% | 16% | 33% | 27% | 16% | 21% | 22% | – | 95% | 138 to 140 °C | 195 mg/L (≈ 394 µM) | –

From patent US11166460B2, “α-amino acrylate microbicide, and preparation method therefor and uses thereof” (priority 2017, dated 2021)
